# Experiments:
# [1] = tested on: panel of 50 receptors, channels and enzymes binding sites; conditions: 1 μM
# [2] = tested on: PGF2α-induced myometrial contractility; experiment: PGF2α-induced contractions of human myometrial biopsies (myograph); conditions: 6, 60, 600, 6000 nM
# Method: Experiments were performed using a DMT Myograph 800 MS (ADINSTRUMENTS™) in oxygenated Kreb's solution with ADI Powerlab software. Once regular contractions had been established for at least 20 minutes, baseline measurements of spontaneous contraction frequency were recorded. The measurement of spontaneous contraction frequency is represented on the x-axis as “Spon.” A DMSO control or compound II was then added to each myometrial sample at the indicated concentrations and the effects of control or compound II on contractile frequency were measured over the ensuing 10-minute period. This time point is represented on the x-axis as “Compound II.” The effects of compound II on contractile frequency in the presence of PGF2α were subsequently measured by challenging the myometrial tissue samples with increasing concentrations of PGF2α (1 nM, 10 nM, and 100 nM) at sequential 10-minute intervals. […] Once regular contractions had been established for at least 20 minutes, baseline measurements of spontaneous work done per contraction were recorded. The measurement of spontaneous work done per contraction is represented on the x-axis as “Spon.” A DMSO control or compound II was then added to each myometrial sample at the indicated concentrations and the effects of control or compound II on work done per contraction were measured over the ensuing 10-minute period. […]
# [3] = Stability in HBSS buffer of the Caco-2 experiments; type: in vitro ADME; conditions: HBSS buffer (2% DMSO final concentration) at 37° C. for 60 and 120 minutes
# Method: Stability of both compound I and compound II was assessed during the test. […] An aliquot of each solution was sampled at time zero (t=0) to assess the starting concentrations of the compounds. The solutions were incubated at 37° C. for the duration of the transport experiment. An aliquot of each solution was sampled at the end of experiment (t=120) to assess the final concentrations of compound I and compound II. Samples were analyzed by LC-MS.
smiles,measurement,setting,value
"O=C(N[C@@H](CCO)c1ccc(F)cc1)[C@@H]1SCCN1S(=O)(=O)c1ccc(-c2ccccc2)cc1 [Compound II, 3-([1,1′-biphenyl]-4-ylsulfonyl)-N-[1-(4-fluorophenyl)-3-hydroxypropyl]-1,3-thiazolidine-2-carboxamide]","Selectivity in panel of 50 receptors, channels and enzymes",[1],high selectivity for FP
same,Effect on PGF2α-induced myometrial contractility,[2],suppressing both PGF2α-induced and OT-induced myometrial contractility in a dose-dependent fashion
same,Stability in HBSS buffer,[3],stable

# — US11524003B2, “Alpha-amino esters of hydroxypropylthiazolidine carboxamide derivative and salt form, crystal polymorph thereof” (ObsEva S.A., priority 2016, dated 2022)
